According to US8173428B2, “LNA oligonucleotides and the treatment of cancer” (Santaris Pharma A/S, priority 2004, dated 2012):
Where two headings read alike, the source gives them in different places. Oligonucleotides are written 5' to 3', each unit as a sugar letter and its base; * is a phosphorothioate linkage, no mark a phosphodiester; rarer units and linkages stand in square brackets, end groups in braces. Plain capitals give the bases only. l = locked nucleic acid (LNA); [5mC] = 5-methylcytosine; d = 2'-deoxy (DNA)

Columns and labels:
[1] = test system: complementary RNA; experiment: Measurement of melting temperature (Tm) of the duplex; format: binding; conditions: 3 μM, 10 mM sodium phosphate/100 mM NaCl/0.1 nM EDTA, pH 7.0
Procedure: Measurement of melting temperature (Tm) of the compounds: A 3 μM solution of SEQ ID NO. 2 in 10 mM sodium phosphate/100 mM NaCl/[…], pH 7.0 was mixed with its complement DNA/RNA 3 μM in 10 mM sodium phosphate/100 mM NaCl/[…], pH 7.0 at 90° C. for a minute and allowed to cool to room temperature. The Tm of the duplex was then determined by increasing the temperature 1° C./min. from 25 to 95° C. The Tm of SEQ ID NO.

[2] = Stability in mouse plasma; format: in vitro ADME; conditions: 20 μM, 37° C., up to 96 hours
Procedure: Stability of 20 μM SEQ ID NO. 2 and SEQ ID NO. 24 in human and mouse plasma (Li-Heparine (Taconic, M&B)) at 37° C. at different time aliquots: 0, 1, 2, 4, 24, 48 and 96 hours. A commercially available ladder was also included (10 and 20 mer are visible on the PAGE). (see FIG. 1)

[3] = test system: cynomolgus monkeys; experiment: i.v. MTD study in cynomolgus monkeys; format: in vivo; conditions: dose escalation up to 160 mg/kg×3 (total 930 mg/kg) or 120 mg/kg×5 over 2 weeks
Procedure: The animals were treated with either a dose escalating design with a maximum dose of 160 mg/kg×3 (total dose of 930 mg/kg) or a 120 mg/kg×5 over 2 weeks.

[4] = test system: 15PC3 cells; experiment: MTS assay of proliferating viable cells; format: cell-based, human
Procedure: Culturing of cells: 15PC3 was cultured in DMEM (Sigma) containing 10% fetal bovine serum, Glutamax I and gentamicin at 37° C., 95% humidity and 5% CO2. The cervical carcinoma cell line HeLa were cultured in MEM (Sigma) containing 10% fetal bovine serum, Glutamax I and gentamicin at 37° C., 95% humidity and 5% CO2. When reaching 60-70% confluency, the cells were transfected using Lipofectamine 2000 (5 μg/ml).
Cells were seeded to a density of 10000 cells per well in clear 96 well plate (Scientific Orange no. 1472030100) in DMEM the day prior to transfection. The next day cells were washed once in prewarmed OptiMEM followed by addition of 72 μl OptiMEM containing 5 μg/ml Lipofectamine 2000 (Invitrogen). Cells were incubated for 7 min before adding 18 μl oligonucleotides diluted in OptiMEM. […] After 4 hours of treatment, cells were washed in OptiMEM and 100 μl serum containing DMEM was added. Following oligonucleotide treatment cells were allowed to recover for the period indicated, viable cells were measured by adding 20 μl of the tetrazolium compound [3-(4,5-[…])-5-(3-carboxymethoxyphenyl)-2-(4-sulfophenyl)-2H-tetrazolium, inner salt; MTS] and an electron coupling reagent (phenazine ethosulfate, PES; CellTiter 96® AQueous One Solution Cell Proliferation Assay, Promega). Viable cells were measured at 490 nm and 650 nm in a Powerwave (Biotek Instruments).
The inhibition of growth rate ΔOD (490-650 nm)/h was plotted against the oligonucleotide concentration relative to mock, which was set to 100%. The maximum inhibition of proliferation observed in the MTS assay was 70% (minimum 30%). (Table 5 and FIG. 5)

[5] = test system: Bcl-2 mRNA; experiment: Bcl-2 mRNA expression by real-time PCR in 15PC3 cells; format: cell-based, human
Procedure: To determine the relative Survivin mRNA level in oligonucleotide treated and untreated cells, the generated cDNA was used in quantitative PCR analysis using an iCycler from BioRad. The cDNA was diluted 5-fold and 8 μl was mixed with 52 μl Taqman probe master mix containing 30 μl Platinum Quantitative PCR SuperMix UDG 2×PCR master mix (Invitrogen), 3 μl 20× Taqman probe and primer mix (forward primer: 5′[…] (SEQ ID NO:29), final 0.9 μM. Reverse primer: 5′[…] (SEQ ID NO:30), final 0.6 μM and taqman probe: FAM-[…]-TAMRA (SEQ ID NO:31), final 0.1 μM) and 19 μl H2O. The 60 μl were dispersed in two wells (96 well plates) with 25 μl in each well. For human Bcl-2 the PCR primers were:
forward primer: 5′ […] 3′ (final concentration in the assay; 0.6 μM) (SEQ ID NO: 32) reverse primer: 5′ […] 3′ (final concentration in the assay; 0.6 μM) (SEQ ID NO: 33) and the PCR probe was: 5′ FAM-[…]-TAMRA 3′ (final concentration in the assay; 0.1 μM) (SEQ ID NO: 34). […]
The primers and probe were obtained from […] (France). To normalize any variance in sample preparation, the endogenous GAPDH mRNA was quantified using a pre-developed Taqman assay reagent from Applied Biosystems (4310884E) according to manufacturer's Instructions. […] Relative quantities of Survivin mRNA were determined from the calculated threshold cycle using the iCycler IQ Real Time Detection System software.

Substance: 5′-^MeCsTs^MeCsAsastscscsastsgsgs^MeCsAsGsc-3′ (l[5mC]*lT*l[5mC]*lA*dA*dT*dC*dC*dA*dT*dG*dG*l[5mC]*lA*lG*dC) [SEQ ID NO. 2]
- Tm (° C.) complementary RNA [1]: 75.3 °C
- Stability in mouse plasma (degradation products) [2]: No degradation products
- clinical signs [3]: no notable clinical signs
- liver and kidney toxicity [3]: evidence of liver and kidney toxicity was apparent in all animals
- Proliferation (relative number of viable cells) ([4]; 0.2, 1, 5, 25 and 100 nM, 13-72 hours after transfection, 15PC3 cells): dose dependent inhibition of proliferation
- IC50 ([4]; 48 hours (Table 7, FIG. 5), read-out: Proliferation IC50 (48 hours)): 5 nM
- IC50 ([4]; 48 hours, transfected 15PC3 cells (Table 5), read-out: Inhibition of proliferation, MTS assay IC50 (48 hours)): 4.9 nM
- Bcl-2 mRNA expression ([5]; 10 nM, 24 hours, 15PC3 cells, single agent or combined with control oligonucleotides): have effects on Survivin and Bcl-2 expression
- Bcl-2 down-regulation ([5]; summary statement, conditions not given): down-regulation of Bcl-2
